This note sets out measurements from PMC10939098 (Emerging Microbes & Infections, 2024).

Each structure is given as a SMILES string. Changes are numbered by the printed parent chain. In brackets after ≈: the same amount, converted by molar mass.

Experiment [1] concerns PER-producing P. aeruginosa clinical isolates. Description: microbe, parasite or virus in culture. The experiment is classed as cell-based, Pseudomonas aeruginosa.
The test system of experiment [2] is PAO1 transconjugants carrying blaPER-1 plasmids. Description: Broth microdilution MIC, transconjugants and recipient PAO1-Rrif. The format is cell-based. The note with it: Pseudomonas aeruginosa. Background: Dilution methods test growth across graded concentrations, often in twofold steps.
The test system of the next experiment is Recombinant PAO1 strains. Description: Broth microdilution MIC, recombinant PAO1 strains carrying blaPER. The experiment is classed as cell-based. The note with it: Pseudomonas aeruginosa, PAO1.
The target of another experiment is T1, PER-1 (Pseudomonas aeruginosa, UniProt P37321).
T1 sequence (P37321 27-308): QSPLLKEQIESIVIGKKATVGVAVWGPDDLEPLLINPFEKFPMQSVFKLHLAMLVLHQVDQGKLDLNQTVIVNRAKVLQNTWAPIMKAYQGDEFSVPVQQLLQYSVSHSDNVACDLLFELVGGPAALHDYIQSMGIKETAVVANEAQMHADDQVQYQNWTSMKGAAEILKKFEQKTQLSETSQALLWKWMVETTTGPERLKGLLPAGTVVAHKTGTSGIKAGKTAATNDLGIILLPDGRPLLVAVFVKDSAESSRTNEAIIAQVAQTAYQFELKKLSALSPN
Description: Steady-state enzyme kinetics, purified PER-1. The experiment is classed as biochemical. Conditions: PER-1.

For a further experiment, the target named is T2, PER-4 (Pseudomonas aeruginosa, UniProt P37321, S135T).
T2 sequence (P37321 27-308 S135T): T1 sequence (P37321 27-308) with S109T
Description: Steady-state enzyme kinetics, purified PER-4. The experiment is classed as biochemical.

Take `C[C@@H](O)[C@H]1C(=O)N2C(C(=O)O)=C(SCCN=CN)C[C@H]12` [IPM, imipenem]: in experiment [1] (56 PER-producing PA strains), the MIC range is 0.5 to 64 mg/L. Moreover, the “% resistance” value in experiment [1] (56 PER-producing PA strains, share of isolates resistant) came out at 92.86%. In experiment [1] (Pseudomonas aeruginosa), the MIC50 came out at 16 mg/L (≈ 53.4 µM). The compound also showed an MIC90 in experiment [1] (Pseudomonas aeruginosa) of 32 mg/L (≈ 107 µM). The MIC in experiment [1] (Pseudomonas aeruginosa, isolate PA268) came to 16 mg/L (≈ 53.4 µM); in experiment [1] (Pseudomonas aeruginosa, isolate PA272), 16 mg/L (≈ 53.4 µM); in experiment [1] (Pseudomonas aeruginosa, isolate PA282) it was 16 mg/L (≈ 53.4 µM); in experiment [1] (Pseudomonas aeruginosa, isolate PA975), 16 mg/L (≈ 53.4 µM); in experiment [1] (Pseudomonas aeruginosa, isolate PA1017), 32 mg/L (≈ 107 µM); in experiment [1] (Pseudomonas aeruginosa, isolate PA1018), 32 mg/L (≈ 107 µM). Moreover, the MIC is 2 mg/L (≈ 6.68 µM) in experiment [2] (PAO1, transconjugant PAO1/pPA272); 32 mg/L (≈ 107 µM) in experiment [2] (PAO1, transconjugant PAO1/pPA1018); 1 mg/L with Recombinant PAO1 strains. The imipenem hydrolysis activity result at PER-1 and on PER-4 was “hardly any detectable” throughout.
